For one data set, the system named is BxPC3 shSki cells. Put plainly: MTT cell viability assay, BxPC3 shSki. The data set is classed as cell-based, human. The following applies: for difference in IC50 values shSki versus shGFP: BxPC3 shSki over shGFP; for IC50: Homo sapiens, BXPC-3, MTT, 72 hr, Ski knockdown. The procedure:
(§1) FIG. 24. Effect of the prodrug on cell viability of BxPC3 cells (shGFP and shSki). Cells were treated with the indicated dose of drugs (BKAc-5FCR or 5FCR) for 72 hr followed by MTT assay. Data represent mean values of triplicate measurements±standard deviation. IC50 values were derived from nonlinear curve fit of the dose response data using an outlier's exclusion, variable slope model (GraphPad Prism software). All values are means of at least two independent experiments.
(§2) The in vitro efficacy of the compounds in a series of BxPC3 and CFPac-1 derivatives with reduced Class I HDAC activity following Ski knockdown (shSki), HDAC3 knockdown and control (shGFP) was assessed. The growth inhibitory/viability effects of the compounds (IC50 value, the concentration resulting in 50% growth inhibition) on the various cell lines were determined by dose response curve analysis (GraphPad Prism software) of MTT [3-(4,5dimethylthiazol-2-yl)-2,5-diphenyl-tetrazolium bromide] cell viability assay. If the prodrugs are activated in an HDAC-dependent manner, the cells with reduced HDAC activity would be predicted to be more resistant to the prodrug treatment than control cells, while the effect of free parental drugs on both cells would be expected to be similar.
On the technique in general: Tetrazolium assays rely on reduction of a dye to a coloured formazan, in cell work by metabolically active cells.

The test system of data set [1] is BxPC3 shGFP control cells. Put plainly: MTT cell viability assay, BxPC3 shGFP. The following applies: Homo sapiens, BXPC-3, 72 hr. The data set is classed as cell-based. On the procedure:
as §1, §2

The test system of a further data set is BXPC-3 cells. Put plainly: MTS cell viability assay with or without TSA. The class given is cell-based, human. The following applies: 20 μM, 72 hr, with TSA (50 μM as printed). On the procedure: FIG. 25. Selective cytotoxicity by BKAc-5FCR. Human pancreatic BXPC3 cells were treated with DMSO (vehicle), BKAc-5FCR (20 μM), or 5FCR (20 μM) for 72 hr with or without TSA (50 μM) followed by MTS cell viability assay. Representative phase contrast images of cells treated with DMSO (vehicle) or BKAc-5FCR (20 μM) for 72 hr with or without TSA (50 μM) are shown.

A further data set deals with cathepsin L (CTSL). Put plainly: Live cell lysyl endopeptidase assay with Boc-Lys-AMC. The class given is cell-based. Particulars: Z-FY-CHO 100 μM, live cells, all cases tested. On the procedure:
FIG. 2. Comparative live cell lysyl endopeptidase activity of the same cell lines as in FIG. 1 using substrate Boc-Lys-AMC either with vehicle control DMSO or Z-FY-CHO (100 μM). Data represent mean values of triplicate measurements±s.d. RFU, relative fluorescent units.
Tissue culture based standard HDAC assays were performed by commercially available fluorimetric HDAC assay kit (SensoLyte, AnaSpec) according to the manufacturer's instruction with modification of using 25 μM Boc-Lys(Ac)-AMC (Bachem) as substrate and measuring parameter (Ex/Em=355 nm/460 nm) for AMC. Basically, HDAC substrate 25 μM Boc-Lys(Ac)-AMC [either with DMSO or 1 μM TSA (Sigma)] was applied to the overnight culture seeded from 6×10^4 cells in 100 μl medium in 96-well tissue culture plates, followed by 2 to 3 h incubation at 37° C. with 5% CO2 atmosphere. […] After 15 m incubation at room temperature, the fluorescent signal of AMC was measured by SpectraMax M5 microplate reader (Molecular Devices) at Ex/Em=355 nm/460 nm. Live cell lysyl endopeptidase assay was performed by applying the substrate 25 μM Boc-Lys-AMC (Bachem) [either with DMSO or 100 μM Z-FY-CHO (EMD)] to the overnight culture seeded from 6×10^4 cells in 100 μl medium in 96-well tissue culture plates, followed by 20 h incubation at 37° C. with 5% CO2 atmosphere, then the fluorescent signal of AMC was measured. […]

Data set [2] has as its system HDAC and cathepsin L in BxPC3 and CFPac-1 cells. As to the kind of experiment: Live cell enzymatic assay with Boc-Lys(Ac)-AMC in pancreatic cancer cells. The data set is classed as cell-based, human. The following applies: for activation of substrate Boc-Lys(Ac)-AMC (AMC release): 6 hr, Z-FY-CHO 10 μM. The procedure:
FIG. 5. A. HDAC assay using different substrates in BxPC3 cells (shGFP and shSki). Cells were incubated with Boc-Lys(Ac)-AMC or Ac-Arg-Gly-Lys(Ac)-AMC (25 μM) for 1 hr with DMSO (vehicle) or TSA (1 μM) as indicated, followed by cell lysis and trypsin treatment, and fluorescence measurements. Data represent mean values of triplicate measurements±standard deviation. RFU, relative fluorescent units. B. Similar experiment was done as in A but without cell lysis and trypsin treatment. Cells were incubated with the substrates for 2.5 hr.
FIG. 6. A. Release of AMC by combined HDAC and endogenous protease-dependent enzymatic reaction in BxPC3 and CFPac-1 cells (shGFP and shSki). Cells were incubated with substrate Boc-Lys(Ac)-AMC (25 μM) for 6 hr with DMSO (vehicle), TSA (1 μM), or Z-FY-CHO (10 μM) as indicated, followed by fluorescence measurements. Data represent mean values of triplicate measurements±standard deviation. RFU, relative fluorescent units. B. Time course of AMC release in BxPC3 cells (shGFP and shSki). Each cells were incubated with Boc-Lys(Ac)-AMC (25 μM) for 2.5, 6.0, and 23 hr with DMSO (vehicle) or TSA (1 μM) as indicated.
Tissue culture based standard HDAC assays were performed by commercially available fluorimetric HDAC assay kit (SensoLyte, AnaSpec) according to the manufacturer's instruction with modification of using 25 μM Boc-Lys(Ac)-AMC (Bachem) as substrate and measuring parameter (Ex/Em=355 nm/460 nm) for AMC. Basically, HDAC substrate 25 μM Boc-Lys(Ac)-AMC [either with DMSO or 1 μM TSA (Sigma)] was applied to the overnight culture seeded from 6×10^4 cells in 100 μl medium in 96-well tissue culture plates, followed by 2 to 3 h incubation at 37° C. with 5% CO2 atmosphere. Then the deacetylation reaction was terminated by addition of HDAC developer solution containing cell lysis buffer and trypsin reagents. After 15 m incubation at room temperature, the fluorescent signal of AMC was measured by SpectraMax M5 microplate reader (Molecular Devices) at Ex/Em=355 nm/460 nm. Live cell lysyl endopeptidase assay was performed by applying the substrate 25 μM Boc-Lys-AMC (Bachem) [either with DMSO or 100 μM Z-FY-CHO (EMD)] to the overnight culture seeded from 6×10^4 cells in 100 μl medium in 96-well tissue culture plates, followed by 20 h incubation at 37° C. with 5% CO2 atmosphere, then the fluorescent signal of AMC was measured. Live cell enzymatic assay using Boc-Lys(Ac)-AMC was performed by applying the substrate 25 μM Boc-Lys(Ac)-AMC (either with DMSO, 1 μM TSA or 100 μM Z-FY-CHO) to the overnight culture seeded from 6×10^4 cells in 100 μl medium in 96-well tissue culture plates, followed by 20 h incubation at 37° C. with 5% CO2 atmosphere, then the fluorescent signal of AMC was measured. Experiments were repeated at least three times.

For data set [3], the system named is HCT116, HT29, CCD841-CoN and Caco-2 cells. Put plainly: Immunological detection of Puro-labeled proteins in cells. The following applies: immunoblot; Boc-KAc-Puro 16.9 μM 20 h; Puro 2.1 μM 16 h. The class given is cell-based, human. On the procedure: FIG. 27. Levels of Puro-incorporated proteins in the cells were monitored by immunoblotting. Indicated cell lines were treated either with vehicle control DMSO or Boc-KAc-Puro (16.9 μM) in the presence or absence of TSA (0.5 μM) for 20 h, followed by preparation of cell lysates. The lower panel (anti-α-Tubulin) serves as a loading control.
FIG. 28. Levels of Puro-incorporated proteins in the cells were monitored by immunoblotting. Indicated cell lines were treated either with vehicle control DMSO or Puro (2.1 μM) in the presence or absence of TSA (0.5 μM) for 16 h, followed by preparation of cell lysates. […] The lower panel (anti-α-Tubulin) serves as a loading control.
Cultured cells or tissue samples were sonicated in RIPA lysis buffer (1% NP-40, 0.1% SDS, 50 mM Tris-HCl pH 7.4, 150 mM NaCl, 0.5% sodium deoxycholate, 1 mM EDTA) supplemented with PMSF and protease inhibitor cocktail (Roche) on ice followed by clarification. Protein lysates were separated on sodium dodecyl sulfate-polyacrylamide gels and transferred onto nitrocellulose membranes (Whatman). The primary antibodies used were anti-puromycin (3RH11, KeraFAST) and anti-α-tubulin (Sigma-Aldrich). Proteins of interest were detected with anti-mouse secondary antibody by chemiluminescence (ECL Kit, GE Healthcare Life Sciences).
On the technique in general: In western blotting, separated proteins are transferred to a membrane and probed.

The test system is the same in data set [4]. As to the kind of experiment: Cell killing by parental Puro (MTS). The data set is classed as cell-based, human. The procedure:
FIG. 14. Inhibition of cell viability by parental Puro. The cell lines were treated with the indicated doses of Puro (0, 1.1, 2.1, 4.2, or 8.4 μM) for 3 d followed by MTS assay. Data represent mean values of triplicate mesurements±s.d.
Cell number was determined by cell counting using improved Neubauer hemacytometer. Cell viability was calculated as the number of viable cells divided by the total number of cells using Trypan Blue Stain (Invitrogen) to distinguish non-viable cells. Data were obtained from duplicated samples with quadruplicate measurements. MTS based cell viability assay was performed using CellTiter 96 Aqueous Cell Proliferation Assay (Promega) according to the manufacturer's instruction. Either 1 μl of DMSO alone or variable concentrations of BKAc-Puro or Puro in DMSO were added to the cell lines seeded at 5×10^4 cells per well in 96-well tissue culture plates in 100 μl of the growth medium, followed by 3-5 d incubation at 37° C. with 5% CO2 atmosphere. […] After additional 2-3 h incubation, the absorbance of the formazan at 490 nm was measured by the microplate reader. […] Determination of non-viable cells using PI staining was performed by adding 1 μg/ml of PI solution (Sigma) to the cell culture, prior to the examination under fluorescence microscopy (Axiovert 3, Carl Zeiss) through a×32 objective equipped with a digital imaging processor (Infinity 3, Lumenera).

The values below come from patent US9872919B2, “Prodrugs for selective anticancer therapy” (THE RESEARCH FOUNDATION FOR THE STATE UNIVERSITY OF NEW YORK, priority 2012, dated 2018).

Where a SMILES comes first, the peptide text is derived from it. The star is where a group is joined. Cbz = O=C(OCc1ccccc1)*

A word on the IC50: it is the concentration that inhibits the measured activity by half. Low values mean inhibition by little substance, high ones a need for much substance.

`CC(=O)NCCCCC(NC(=O)OC(C)(C)C)C(=O)Nc1nc(=O)n([C@@H]2O[C@H](CO)[C@@H](O)[C@H]2O)cc1F` (stereo partly drawn) [BKAc-5FCR, t-butyl (6-acetamido-1-((1-((2R,3R,4S,5R)-3,4-dihydroxy-5-(hydroxymethyl)tetrahydrofuran-2-yl)-5-fluoro-2-oxo-1,2-dihydropyrimidin-4-yl)amino)-1-oxohexan-2-yl)carbamate]: in the data set with BxPC3 shSki cells, the “difference in IC50 values shSki versus shGFP” value is listed as “two-fold” and 5200 nM corresponded to half-maximal inhibition (IC50). Further, 2600 nM corresponded to half-maximal inhibition in data set [1] (IC50). Also, the “cytotoxic effect in the presence of HDAC inhibitor TSA” value with BXPC-3 cells is on record as “substantially compromised”.

With `O=C[C@H](Cc1ccc(O)cc1)NC(=O)[C@H](Cc1ccccc1)NC(=O)OCc1ccccc1` [Z-FY-CHO] (Cbz-Phe-Tyr-aldehyde), in the data set with cathepsin L (CTSL), the “release of AMC from Boc-Lys-AMC” value is “significantly blocked”. Also, in data set [2] (TSA 1 μM), the “activation of substrate Boc-Lys(Ac)-AMC (AMC release)” value is listed as “completely abrogated the activation of the substrate”.

Take `CC(/C=C/C(=O)NO)=C\[C@@H](C)C(=O)c1ccc(N(C)C)cc1` [TSA, Trichostatin A]: the “activation of substrate Boc-Lys(Ac)-AMC (AMC release)” value in data set [2] (TSA 1 μM) was “completely inhibited activation”. Besides, the “AMC release, time course” value in data set [2] (BxPC3, 20 hr time course, TSA 1 μM) is recorded as “AMC release was inhibited”.

Consider `CC(=O)NCCCC[C@H](NC(=O)OC(C)(C)C)C(=O)Nc1ccc2c(C)cc(=O)oc2c1` [Boc-Lys(Ac)-AMC], for which the “activation of substrate in live cells relative to total HDAC activity” value in data set [2] (BxPC3, 25 μM, 2.5 hr, without cell lysis and trypsin) is “approximately 50%”.

For `COc1ccc(C[C@H](N)C(=O)N[C@H]2[C@@H](O)[C@H](n3cnc4c(N(C)C)ncnc43)O[C@@H]2CO)cc1` [Puro, puromycin, reference compound], the “intensity of Puro incorporation, malignant vs normal and non-malignant cells” value in data set [3] is “no difference”. In addition, in data set [4], the cell killing entry is given as “kill all of these cells examined”.

As to `Nc1nc(=O)n([C@@H]2O[C@H](CO)[C@@H](O)[C@H]2O)cc1F` [5FCR, 5-fluorocytidine, reference compound], in the data set on BxPC3 shSki cells, the “difference in IC50 values shSki versus shGFP” value is “no significant changes” and the concentration for half-maximal inhibition (IC50) was found to be 1200 nM. The compound further registered a half-maximal inhibitory concentration (IC50) in data set [1] of 1300 nM.
